# Results taken from US20100112061A1, “Monophosphates as Mutual Prodrugs of Muscarinic Receptor Antagonists and Beta-Agonists for the Treatment of COPD And Chronic Bronchitis” (priority 2006, published 2010).
# Columns and labels:
# alkaline phosphatase = alkaline phosphatase (Homo sapiens, UniProt P05187); experiment: Conversion of the mutual MRA-β-agonist prodrug to salmeterol and MRA after exposure to alkaline phosphatase in vitro (LCMS); assay type: in vitro ADME; conditions: for Example 29 (GS-343071) in ALP (Peak Area Ratio) Normalized / Example 29 (GS-343071) in ALP (Peak Area Ratio) mean / Formation of dipeptide (Sagara 2006) in ALP (Peak Area Ratio) Normalized / Formation of dipeptide (Sagara 2006) in ALP (Peak Area Ratio) mean: alkaline phosphatase; for Formation of dipeptide (Sagara 2006) in ALP (Peak Area Ratio) Normalized / Formation of dipeptide (Sagara 2006) in ALP (Peak Area Ratio) mean: from prodrug Example 29
# Sequence of alkaline phosphatase (P05187 23-506 limits assumed): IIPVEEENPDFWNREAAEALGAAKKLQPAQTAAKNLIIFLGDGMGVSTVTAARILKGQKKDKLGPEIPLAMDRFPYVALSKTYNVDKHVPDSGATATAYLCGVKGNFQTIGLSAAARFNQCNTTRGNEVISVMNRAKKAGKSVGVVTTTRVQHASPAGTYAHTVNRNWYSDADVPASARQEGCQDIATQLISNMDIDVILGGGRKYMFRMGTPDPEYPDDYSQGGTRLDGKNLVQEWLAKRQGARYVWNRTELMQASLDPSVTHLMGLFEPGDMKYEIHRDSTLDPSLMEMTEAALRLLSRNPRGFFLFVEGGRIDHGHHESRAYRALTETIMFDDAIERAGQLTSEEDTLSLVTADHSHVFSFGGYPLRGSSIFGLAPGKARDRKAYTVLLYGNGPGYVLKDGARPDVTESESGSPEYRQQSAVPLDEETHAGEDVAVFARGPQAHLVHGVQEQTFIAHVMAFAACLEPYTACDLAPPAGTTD
# Procedure: Conversion of the Mutual MRA-β-Agonist Prodrug (Described in Example 29) to Salmeterol and MRA after Exposure to Alkaline Phosphatase In Vitro
# (§1) Reaction Buffer (pH 7.4, 5 mM tris/1 mM Mg^2+/1 mM Zn^2+)
# (§2) Diluted 5 ml of 50 mM tris stock, 1 ml of 50 mM MgCl2 stock, and 1 ml of ZnCl2 and then stocked to 10 ml with water.
# Alkaline Phosphatase Stock Solution […]
# Dissolved ˜2 mg of the mutual prodrug of invention in 10 ml 1:1 acetonitrile/water.
# Reaction Product Stock Solution
# Dissolved ˜2 mg of each MRA and β-agonist in 20 ml 1:1 acetonitrile/water
# The stock solutions were mixed in microcentrifuge tubes, as depicted in the following Table:
# (§3) The heat block was set at the 37 degrees. Then 0.5 mL of alkaline phosphatase solution was added into 4 preheated Eppendorf tubes. The aliquot 0.5 of prodrug and drug standards were added into preheated Eppendorf tubes. Immediately after vortexing the aliquots of 25 μL of the all reaction solutions were made into the respective 96-well plate positions. The internal standard (75 μl of 500 ng/mL Glyburide) was added into all samples after each aliquots. That procedure was repeated at every 15 minute intervals for ˜4-5 hrs.
# The 96-well plates were then analyzed using the LCMS technique.
# Half Life Calculation (t1/2)
# (§4) In the calculation of half life, we assumed that the disappearance of the mutual prodrug of this invention followed first order kinetics. Therefore,
# (§5) The area peak ratio of prodrug vs IS was plotted against time first; the peak area ratios of later time points were normalized with the peak area ratio of initial time point (ASAP). The natural log of the normalized ratio was then plotted against time to generate a linear curve. The slope of this linear curve k was used for the following calculation.
# Graphic plotted rate constant of loss K
# Drug Concentration Determination
# Drug concentrations are calculated by normalizing the peak area ration to (t 0). Thus, calculated drug concentrations at any time point=normalized peak area ratio [t (0) mean/t mean]×initial drug concentration. Data (normalized peak area ratio) for the calculations of drug concentrations are listed in Table 1 and 2 for compounds in Example 29 (GS343071), salmeterol, and the dipeptide (M3 antagonist prepared by Sagara 2006).
# [1] = Half life of the prodrug in reaction buffer only (no alkaline phosphatase); assay type: physicochemical; conditions: reaction buffer without alkaline phosphatase; reaction buffer pH 7.4, no alkaline phosphatase
# Procedure: as §1, §2
# as §3, with “Then 0.5 mL of alkaline phosphatase solution was added into 4 preheated Eppendorf tubes.” left out
# as §4, §5
smiles,measurement,setting,value
"C[N+]1(Cc2cc(C(O)CNCCCCCCOCCCCc3ccccc3)ccc2OP(=O)(O)O)CCC(CNC(=O)[C@H]2CCCN2C(=O)[C@@H]2C[C@@H](O)CN2C(=O)CC(c2ccc(F)cc2)(c2ccc(F)cc2)c2ccc(F)cc2)CC1 (stereo partly drawn) [Example 29, 1-(5-{1-Hydroxy-2-[6-(4-phenyl-butoxy)-hexylamino]-ethyl}-2-phosphonooxy-benzyl)-4-{[(1-{4-hydroxy-1-[3,3,3-tris-(4-fluoro-phenyl)-propionyl]-pyrrolidine-(S)-2-carbonyl}-pyrrolidine-(R)-2-carbonyl)-amino]-methyl}-1-methyl-piperidinium]",Half Life t1/2,"alkaline phosphatase; ALP Enzyme Conc. 0.224 mg/mL, 37 degrees, first order kinetics assumed",1.58 h
same,Calculated Compound Final Conc. (μM) at 270 mins.,"alkaline phosphatase; Added Compound Initial Conc. 86.6 μM in Reaction Mixture, ALP Enzyme Conc. 0.443 mg/mL",7.8 µM
same,Example 29 (GS-343071) in ALP (Peak Area Ratio) Normalized,"alkaline phosphatase; Time 0 mins, 37 degrees",1.0000
same,Example 29 (GS-343071) in ALP (Peak Area Ratio) mean,"alkaline phosphatase; Time 0 mins, 37 degrees",0.2030
same,Example 29 (GS-343071) in ALP (Peak Area Ratio) Normalized,"alkaline phosphatase; Time 15.0 mins, 37 degrees",0.5887
same,Example 29 (GS-343071) in ALP (Peak Area Ratio) mean,"alkaline phosphatase; Time 15.0 mins, 37 degrees",0.1195
same,Example 29 (GS-343071) in ALP (Peak Area Ratio) Normalized,"alkaline phosphatase; Time 30.0 mins, 37 degrees",0.4340
same,Example 29 (GS-343071) in ALP (Peak Area Ratio) mean,"alkaline phosphatase; Time 30.0 mins, 37 degrees",0.0881
same,Example 29 (GS-343071) in ALP (Peak Area Ratio) Normalized,"alkaline phosphatase; Time 45.0 mins, 37 degrees",0.3313
same,Example 29 (GS-343071) in ALP (Peak Area Ratio) mean,"alkaline phosphatase; Time 45.0 mins, 37 degrees",0.0673
same,Example 29 (GS-343071) in ALP (Peak Area Ratio) Normalized,"alkaline phosphatase; Time 60.0 mins, 37 degrees",0.2850
same,Example 29 (GS-343071) in ALP (Peak Area Ratio) mean,"alkaline phosphatase; Time 60.0 mins, 37 degrees",0.0579
same,Example 29 (GS-343071) in ALP (Peak Area Ratio) Normalized,"alkaline phosphatase; Time 75.0 mins, 37 degrees",0.2387
same,Example 29 (GS-343071) in ALP (Peak Area Ratio) mean,"alkaline phosphatase; Time 75.0 mins, 37 degrees",0.0485
same,Example 29 (GS-343071) in ALP (Peak Area Ratio) Normalized,"alkaline phosphatase; Time 90.0 mins, 37 degrees",0.2079
same,Example 29 (GS-343071) in ALP (Peak Area Ratio) mean,"alkaline phosphatase; Time 90.0 mins, 37 degrees",0.0422
same,Example 29 (GS-343071) in ALP (Peak Area Ratio) Normalized,"alkaline phosphatase; Time 105 mins, 37 degrees",0.2017
same,Example 29 (GS-343071) in ALP (Peak Area Ratio) mean,"alkaline phosphatase; Time 105 mins, 37 degrees",0.0410
same,Example 29 (GS-343071) in ALP (Peak Area Ratio) Normalized,"alkaline phosphatase; Time 120 mins, 37 degrees",0.1788
same,Example 29 (GS-343071) in ALP (Peak Area Ratio) mean,"alkaline phosphatase; Time 120 mins, 37 degrees",0.0363
same,Example 29 (GS-343071) in ALP (Peak Area Ratio) Normalized,"alkaline phosphatase; Time 135 mins, 37 degrees",0.1643
same,Example 29 (GS-343071) in ALP (Peak Area Ratio) mean,"alkaline phosphatase; Time 135 mins, 37 degrees",0.0334
same,Example 29 (GS-343071) in ALP (Peak Area Ratio) Normalized,"alkaline phosphatase; Time 150 mins, 37 degrees",0.1397
same,Example 29 (GS-343071) in ALP (Peak Area Ratio) mean,"alkaline phosphatase; Time 150 mins, 37 degrees",0.0284
same,Example 29 (GS-343071) in ALP (Peak Area Ratio) Normalized,"alkaline phosphatase; Time 165 mins, 37 degrees",0.1310
same,Example 29 (GS-343071) in ALP (Peak Area Ratio) mean,"alkaline phosphatase; Time 165 mins, 37 degrees",0.0266
same,Example 29 (GS-343071) in ALP (Peak Area Ratio) Normalized,"alkaline phosphatase; Time 180 mins, 37 degrees",0.1372
same,Example 29 (GS-343071) in ALP (Peak Area Ratio) mean,"alkaline phosphatase; Time 180 mins, 37 degrees",0.0279
same,Example 29 (GS-343071) in ALP (Peak Area Ratio) Normalized,"alkaline phosphatase; Time 210 mins, 37 degrees",0.1163
same,Example 29 (GS-343071) in ALP (Peak Area Ratio) mean,"alkaline phosphatase; Time 210 mins, 37 degrees",0.0236
same,Example 29 (GS-343071) in ALP (Peak Area Ratio) Normalized,"alkaline phosphatase; Time 240 mins, 37 degrees",0.0978
same,Example 29 (GS-343071) in ALP (Peak Area Ratio) mean,"alkaline phosphatase; Time 240 mins, 37 degrees",0.0199
same,Example 29 (GS-343071) in ALP (Peak Area Ratio) Normalized,"alkaline phosphatase; Time 270 mins, 37 degrees",0.0906
same,Example 29 (GS-343071) in ALP (Peak Area Ratio) mean,"alkaline phosphatase; Time 270 mins, 37 degrees",0.0184
same,half-life,"alkaline phosphatase; human, pH 7.4, ALP Enzyme Conc. 0.224 mg/mL, 37 degrees, first order kinetics assumed, read-out: Half Life t1/2",1.04 h
same,half-life at 86.6 μM,"alkaline phosphatase; human, pH 7.4, ALP Enzyme Conc. 0.443 mg/mL, 37 degrees, first order kinetics assumed, read-out: Half Life t1/2",0.72 h
same,half-life,[1],12.8 h
"CN1CCC(CNC(=O)[C@H]2CCCN2C(=O)[C@@H]2CC(O)CN2C(=O)CC(c2ccc(F)cc2)(c2ccc(F)cc2)c2ccc(F)cc2)CC1 (stereo partly drawn) [dipeptide (Sagara 2006), 1-{4-hydroxy-1-[3,3,3-tris-(4-fluoro-phenyl)-propionyl]-pyrrolidine-(S)-2-carbonyl}-pyrrolidine-(R)-2-carboxylic acid-(1-methyl-piperidin-4-ylmethyl)-amide, reference compound]",Formation of dipeptide (Sagara 2006) in ALP (Peak Area Ratio) Normalized,"alkaline phosphatase; Time 0 mins, 37 degrees",1.0000
same,Formation of dipeptide (Sagara 2006) in ALP (Peak Area Ratio) mean,"alkaline phosphatase; Time 0 mins, 37 degrees",0.1765
same,Formation of dipeptide (Sagara 2006) in ALP (Peak Area Ratio) Normalized,"alkaline phosphatase; Time 15.0 mins, 37 degrees",1.9830
same,Formation of dipeptide (Sagara 2006) in ALP (Peak Area Ratio) mean,"alkaline phosphatase; Time 15.0 mins, 37 degrees",0.3500
same,Formation of dipeptide (Sagara 2006) in ALP (Peak Area Ratio) Normalized,"alkaline phosphatase; Time 30.0 mins, 37 degrees",2.7365
same,Formation of dipeptide (Sagara 2006) in ALP (Peak Area Ratio) mean,"alkaline phosphatase; Time 30.0 mins, 37 degrees",0.4830
same,Formation of dipeptide (Sagara 2006) in ALP (Peak Area Ratio) Normalized,"alkaline phosphatase; Time 45.0 mins, 37 degrees",2.7989
same,Formation of dipeptide (Sagara 2006) in ALP (Peak Area Ratio) mean,"alkaline phosphatase; Time 45.0 mins, 37 degrees",0.4940
same,Formation of dipeptide (Sagara 2006) in ALP (Peak Area Ratio) Normalized,"alkaline phosphatase; Time 60.0 mins, 37 degrees",3.0595
same,Formation of dipeptide (Sagara 2006) in ALP (Peak Area Ratio) mean,"alkaline phosphatase; Time 60.0 mins, 37 degrees",0.5400
same,Formation of dipeptide (Sagara 2006) in ALP (Peak Area Ratio) Normalized,"alkaline phosphatase; Time 75.0 mins, 37 degrees",3.2210
same,Formation of dipeptide (Sagara 2006) in ALP (Peak Area Ratio) mean,"alkaline phosphatase; Time 75.0 mins, 37 degrees",0.5685
same,Formation of dipeptide (Sagara 2006) in ALP (Peak Area Ratio) Normalized,"alkaline phosphatase; Time 90.0 mins, 37 degrees",3.6402
same,Formation of dipeptide (Sagara 2006) in ALP (Peak Area Ratio) mean,"alkaline phosphatase; Time 90.0 mins, 37 degrees",0.6425
same,Formation of dipeptide (Sagara 2006) in ALP (Peak Area Ratio) Normalized,"alkaline phosphatase; Time 105 mins, 37 degrees",3.8612
same,Formation of dipeptide (Sagara 2006) in ALP (Peak Area Ratio) mean,"alkaline phosphatase; Time 105 mins, 37 degrees",0.6815
same,Formation of dipeptide (Sagara 2006) in ALP (Peak Area Ratio) Normalized,"alkaline phosphatase; Time 120 mins, 37 degrees",3.9207
same,Formation of dipeptide (Sagara 2006) in ALP (Peak Area Ratio) mean,"alkaline phosphatase; Time 120 mins, 37 degrees",0.6920
same,Formation of dipeptide (Sagara 2006) in ALP (Peak Area Ratio) Normalized,"alkaline phosphatase; Time 135 mins, 37 degrees",4.0793
same,Formation of dipeptide (Sagara 2006) in ALP (Peak Area Ratio) mean,"alkaline phosphatase; Time 135 mins, 37 degrees",0.7200
same,Formation of dipeptide (Sagara 2006) in ALP (Peak Area Ratio) Normalized,"alkaline phosphatase; Time 150 mins, 37 degrees",4.2890
same,Formation of dipeptide (Sagara 2006) in ALP (Peak Area Ratio) mean,"alkaline phosphatase; Time 150 mins, 37 degrees",0.7570
same,Formation of dipeptide (Sagara 2006) in ALP (Peak Area Ratio) Normalized,"alkaline phosphatase; Time 165 mins, 37 degrees",4.4193
same,Formation of dipeptide (Sagara 2006) in ALP (Peak Area Ratio) mean,"alkaline phosphatase; Time 165 mins, 37 degrees",0.7800
same,Formation of dipeptide (Sagara 2006) in ALP (Peak Area Ratio) Normalized,"alkaline phosphatase; Time 180 mins, 37 degrees",4.7082
same,Formation of dipeptide (Sagara 2006) in ALP (Peak Area Ratio) mean,"alkaline phosphatase; Time 180 mins, 37 degrees",0.8310
same,Formation of dipeptide (Sagara 2006) in ALP (Peak Area Ratio) Normalized,"alkaline phosphatase; Time 210 mins, 37 degrees",5.0227
same,Formation of dipeptide (Sagara 2006) in ALP (Peak Area Ratio) mean,"alkaline phosphatase; Time 210 mins, 37 degrees",0.8865
same,Formation of dipeptide (Sagara 2006) in ALP (Peak Area Ratio) Normalized,"alkaline phosphatase; Time 240 mins, 37 degrees",5.0567
same,Formation of dipeptide (Sagara 2006) in ALP (Peak Area Ratio) mean,"alkaline phosphatase; Time 240 mins, 37 degrees",0.8925
same,Formation of dipeptide (Sagara 2006) in ALP (Peak Area Ratio) Normalized,"alkaline phosphatase; Time 270 mins, 37 degrees",5.6997
same,Formation of dipeptide (Sagara 2006) in ALP (Peak Area Ratio) mean,"alkaline phosphatase; Time 270 mins, 37 degrees",1.0060
